# Measurements reported in patent publication US9167822B2, “Antifungal compositions” (DSM IP ASSETS B.V., priority 2012, dated 2015).
# Key:
# Botrytis cinerea = experiment: In vitro antifungal activity, 96-well microtiter plates; type: cell-based; details: 25° C., day 3, 1.25 ppm natamycin, 6.25 ppm isopyrazam or both
# Method: Subsequently, 100 μl of a Botrytis cinerea suspension prepared in PCB medium was used to inoculated each well with 2.5×10^3 spores/ml. […] After incubation of the microtiter plates at 25° C., the in vitro antifungal activity (%) of the individual active ingredients was assessed by calculating the reduction in mould growth observed in the presence of the active ingredient in comparison to the mould growth observed in the absence of the active ingredient. The expected antifungal activity (E in %) of the active ingredient combination was calculated according to the Colby equation (Colby, 1967): […]
# Penicillium italicum = experiment: as above; type: cell-based; details: 25° C., day 10, 0.63 ppm natamycin, 25 ppm isopyrazam or both
# Method: Subsequently, 100 μl of a Botrytis cinerea suspension prepared in PCB medium was used to inoculated each well with 2.5×10^3 spores/ml.
# After incubation of the microtiter plates at 25° C., the in vitro antifungal activity (%) of the individual active ingredients was assessed by calculating the reduction in mould growth observed in the presence of the active ingredient in comparison to the mould growth observed in the absence of the active ingredient. The expected antifungal activity (E in %) of the active ingredient combination was calculated according to the Colby equation (Colby, 1967): E=X+Y−[(X·Y)/100] wherein X and Y are the observed antifungal activities (in %) of the individual active ingredients X and Y, respectively. If the observed antifungal activity (O in %) of the combination exceeds the expected antifungal activity (E in %) of the combination and the resulting synergy factor O/E is thus >1.0, the combined application of the active ingredients leads to a synergistic antifungal effect.
# Furthermore, Penicillium italicum was used for inoculation.
compound,measurement,setting,value
"CC(C)C1C2CCC1c1c(NC(=O)c3cn(C)nc3C(F)F)cccc12 (centres unmarked) [Isopyrazam, isopyrazam]",Observed antifungal activity O (%),Botrytis cinerea,0%
same,Observed antifungal activity O (%),Penicillium italicum,50%
